How the values were obtained:
[1] = test system: Human immunodeficiency virus 1; assay: Concentration required to protect 50% of HIV-1 infected MT-4 cells against viral cytopathicity.; format: functional, organism-based; details: Human immunodeficiency virus 1, MT4
[2] = test system: Human immunodeficiency virus 2; assay: Concentration required to protect 50% of HIV-2 infected MT-4 cells against viral cytopathicity.; format: functional, organism-based; details: Human immunodeficiency virus 2, MT4
MT4 = assay: Concentration required to reduce the number of viable uninfected MT-4 cells by 50%.; format: functional; details: Homo sapiens

| SMILES | EC50 [1] | EC50 [2] | CC50 (MT4) |
| --- | --- | --- | --- |
| COP(=O)(O)OCC1C=CC(n2ccc(N)nc2=O)O1 (stereo unspecified) | 3.1 µM | 1.7 µM | 27 µM |
| Nc1ccn(C2C=CC(COP(=O)(O)c3ccccc3)O2)c(=O)n1 (stereo unspecified) | 111 µM | 136 µM | > 500 µM |
| Nc1ncnc2c1ncn2C1C=CC(COP(O)(=S)c2ccccc2)O1 (stereo unspecified) | > 500 µM | > 500 µM | > 500 µM |
| Nc1ncnc2c1ncn2C1C=CC(COP(=O)(O)Oc2ccccc2)O1 (stereo unspecified) | 24 µM | 37 µM | 157 µM |
| Nc1ncnc2c1ncn2C1C=CC(COP(=O)(O)c2ccccc2)O1 (stereo unspecified) | > 500 µM | > 500 µM | > 500 µM |
| Nc1ccn([C@H]2CC[C@@H](CO)O2)c(=O)n1 [ZALCITABINE] | 0.91 µM | 0.69 µM | 30 µM |
| Nc1ccn(C2C=CC(COP(O)(=S)c3ccccc3)O2)c(=O)n1 (stereo unspecified) | > 500 µM | > 500 µM | > 500 µM |
| Nc1ccn(C2C=CC(COP(=O)(O)Oc3ccccc3)O2)c(=O)n1 (stereo unspecified) | 1.9 µM | 1.5 µM | 35 µM |
| CC1=CN([C@H]2C[C@H](OP(=O)(O)OC[C@@H]3C=C[C@H](n4cnc5c(N)ncnc54)O3)[C@@H](CO)O2)C(=O)NC1N (stereo partly specified) | 26 µM | 29 µM | 198 µM |
| CC1=CN([C@H]2C[C@H](OP(=O)(O)OC[C@@H]3C=C[C@H](n4ccc(N)nc4=O)O3)[C@@H](CO)O2)C(=O)NC1N (stereo partly specified) | 1.8 µM | 1.6 µM | 28 µM |
| Nc1ncnc2c1ncn2[C@H]1CC[C@@H](CO)O1 | 41 µM | 72 µM | > 100 µM |
| COP(=O)(O)OCC1C=CC(n2cnc3c(N)ncnc32)O1 (stereo unspecified) | 38 µM | 58 µM | 168 µM |

Reference: ChEMBL document CHEMBL1125491, “Potential prodrug derivatives of 2',3'-didehydro-2',3'-dideoxynucleosides. Preparations and antiviral activities” (J Med Chem, 1992)
